Key:
nanoKAZ [1] = target: T1, nanoKAZ (Oplophorus gracilirostris, UniProt Q9GV45, A31E/A60N/A81I/F95D/I117V/K70R/L54V/L99Q/M102K/N193R/P142E/Q151K/Q38R/Q45L/V71I/Y165I); experiment: Bioluminescence emission spectra; format: biochemical
T1 construct: luciferase catalytic domain (nanoKAZ, 19 kDa) from the Oplophorus-derived luciferase
Source text: (§1) Furimazine (Q-1) and derivatives have emission spectra centred on 460 nm but present large peaks bleeding beyond 580 nm. The bioluminescence obtained with the analogue Q-3 provides photons with 10% of them having a wavelength beyond 560 nm up to 600 nm. This wide spectra emission toward red is thus allowing the use of the nanok AZ/furimazine for in vivo imaging. The light emission beyond 580 is thousands times higher than red emitting firefly or beetle luciferases. IL7:nanoKAZ and analogue Q-3 were injected in mice.

[2] = cited from earlier work; for storage stability: commercially available luciferins; for permitted storage time at 4° C.: recommended storage conditions
[3] = system: protein chimeras fused to the nanoKAZ in transiently transfected HEK and Jurkat cell lines, and primary human T-cells; experiment: In cellulo bioluminescence imaging with a light microscope; format: cell-based
Source text: FIG. 5 compares expression and location of protein chimeras fused to the nanoKAZ in transiently transfected HEK and Jurkat cell lines, and primary human T-cells: the cytokine receptor IL7Rα:nanoKAZ at the membrane (top), the enconsin tubulin binding protein EMTB:nanoKAZ associated with microtubules (middle), the transcription factor STAT5a:nanoKAZ dense throughout the cytoplasm and faint in the nucleus (bottom).
The acquisition of bioluminescence using a light microscope provides a quantitative measurement of light emission cell by cell, the main advantage. This is meaningful especially when the transfection efficiency is low in the case of nanoKAZ expression provided by plasmids. […] The higher is the bioluminescence efficiency, the lower is the exposure time and the lower is the sensitivity required for the detector or camera. NanoKAZ with developed substrates such as Q-3 or Q-12 opens the bioluminescence imaging to standard light microscope. The lower the exposure time, the higher the resolution, which is impeded by the motion of living cells. Any gain in light emission enhances the quality of images. Luciferase reporters or fragments can be fused to proteins targeting the cell surface, cytoplasm, organelles, nucleus or exosomes and can be carried by virus, host-infecting cells or agents, biologic complexes, beads or any particles. […]

nanoKAZ [4] = target: T1, nanoKAZ; experiment: Michaelis-Menten parameters of nanoKAZ from Lineweaver-Burk representation; format: biochemical; conditions: for Vmax: extrapolated from Lineweaver-Burk, constant enzyme concentration
Source text: The two dotted lines (linear regression) are converging to the same intercept with the x-axis (−1/Km) and different intercepts with the y-axis (1/Vmax). The equations of the two linear regressions are indicated and the corresponding correlation factors (R^2) with the experimental data are reported.
Considering the hypothesis of a Michaelis-Menten mechanism for the nanoKAZ, the Km and Vmax were extrapolated from the Lineweaver-Burk representation of the enzyme activity catalyzing either Q-1 or Q-3. […] The data have been fitted with linear regression with satisfying high correlation factors (R). The Km are the same for both substrates (Km=2 μM) whereas the Vmax is 3-times lower for Q-1 (0.6·10^6 RLU/sec) than for Q-3 (2.0·10^6 RLU/sec).

nanoKAZ luciferase = target: T2, nanoKAZ luciferase (Oplophorus gracilirostris, UniProt Q9GV45, A31E/A60N/A81I/F95D/I117V/K70R/L54V/L99Q/M102K/N193R/P142E/Q151K/Q38R/Q45L/V71I/Y165I); experiment: In vitro bioluminescence screening of imidazo[1,2-a]pyrazin-3(7H)-ones with nanoKAZ expressed in vitro (96-well luminometer, 2 h kinetic); format: biochemical; conditions: furimazine = 1
T2 construct: luciferase catalytic domain (nanoKAZ, 19 kDa) from the Oplophorus-derived luciferase; host or cells: cell-free: 1-Step Human Coupled IVT Kit, pT7CFE1-based vector
How it was run: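 nanoKAZ made by human coupled IVT, diluted 400-fold then 1/20 in DPBS + 0.1% Tween 20; luciferins generated in situ by acid hydrolysis of O-acetyl precursors (DMSO/acidic ethanol, 50 °C, 2 h). Luminescence followed kinetically for 2 h; max intensity, signal half-life and 10-min and 2-h AUC normalized to furimazine.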

[5] = Acidic hydrolysis of imidazo[1,2-a]pyrazin-3-yl acetate into the luciferin, LC/MS monitoring; format: physicochemical; conditions: DMSO / acidic ethanol (HCl), 50° C.
Description: FIG. 1 illustrates the HPLC profiles over time for the acetyl hydrolysis of P-21 (M=451) into the corresponding luciferin Q-12 (M=409). Obtained on an Agilent apparatus, with a 3.5 μm XDB-C18 column and a water/methanol gradient (containing 5 mM ammonium formate, from 95-5 to 5-95 in 3.5 min, 3.5 min at 5-95, and then back at 95-5 in 0.5 min), UV monitoring set at […].
General protocol for the generation of solutions of imidazo[1,2-a]pyrazin-3(7H)-one Q by acidic hydrolysis of imidazo[1,2-a]pyrazin-3-yl acetate derivatives P. The considered acetate P (1 mg) was dissolved in DMSO (0.2 mL) and then diluted by adding a solution of acidic ethanol (0.3 ml) made from the addition of 37% hydrochloric acid (100 μl) on 100% ethanol (12 mL). This 0.5 mL solution was incubated at 50° C. for 2 hours to give a stock solution which was then stored at −80° C. […] Nota: these conditions are only adapted to the hydrolysis of the protecting group (as defined above) of the oxygen on position 2 of the imidazo[1,2-a]pyrazine ring system and not to the hydrolysis of any additional acetyl groups eventually present elsewhere on the substrate of this reaction.

nanoKAZ [6] = target: T1, nanoKAZ; experiment: Dynamic range of nanoKAZ bioluminescence versus serial enzyme dilutions; format: biochemical; conditions: constant volume 100 μL, constant substrate concentration
Description: FIG. 3 illustrates dynamic range (relative units (RLU) versus serial dilutions) of nanok AZ, which was plotted using the imidazo[1,2-a]pyrazin-3(7H)-one Q-3.
As depicted in FIG. 3, the dynamic range of nanoKAZ was assessed using luciferin Q-3. The enzyme was diluted three by three times and the bioluminescence has been measured on a constant volume (100 (L) and at constant concentration of the substrate. The bioluminescence is linear with the enzyme concentration over 5 orders of magnitude, overwhelming the detection system. This range can be increase by two orders of magnitude by decreasing 2 times the volume for high enzyme concentration and by increasing two times the volume for low enzyme concentration.

IL7:nanoKAZ = experiment: In vivo bioluminescence imaging (Ivis) after injection of IL7:nanoKAZ and substrate; conditions: IL7:nanoKAZ and substrate injected in mice
Source text: as §1

[7] = second table, luciferins made in situ from O-protected P

T2 sequence (Q9GV45 other isoform, or with tags, fused parts or gaps with the stated changes): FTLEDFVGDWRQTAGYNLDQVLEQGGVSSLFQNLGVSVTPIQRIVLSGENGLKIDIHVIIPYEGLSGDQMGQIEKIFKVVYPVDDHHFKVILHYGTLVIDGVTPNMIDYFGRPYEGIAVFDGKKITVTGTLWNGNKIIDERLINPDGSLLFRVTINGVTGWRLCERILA
T1 sequence (Q9GV45 other isoform, or with tags, fused parts or gaps with the stated changes): as above

SMILES	V1: maximum intensity, normalized using furimazine (Q-1) as a reference (nanoKAZ luciferase; Table 1)	V3: area under the curve for ten minutes, normalized using furimazine (Q-1) as a reference (nanoKAZ luciferase; Table 1)	V4: area under the curve for two hours, normalized using furimazine (Q-1) as a reference (nanoKAZ luciferase; Table 1)	further results
O=c1c(Cc2ccco2)nc2c(Cc3ccccc3)[nH]c(-c3ccccc3)cn1-2 [Q-1, 8-benzyl-2-(furan-2-ylmethyl)-6-phenylimidazo[1,2-a]pyrazin-3(7H)-one, reference compound]	1	1	1	emission spectra centre (nanoKAZ [1]): 460 nm; storage stability [2]: very weak storage stability; permitted storage time at 4° C. [2]: up to two weeks only; extension of experience times to get the same quality as with nanoKAZ/analogue Q-3 ([3]; nanoKAZ/furimazine versus nanoKAZ/Q-3): 3 folds; Vmax, times lower than for Q-3 (nanoKAZ [4]; Q-1 versus Q-3): 3 times; Vmax (nanoKAZ [4]): 0.6·10^6 RLU/sec; V3: area under the curve for 2 hours, normalized using furimazine (Q-1) as a reference (nanoKAZ luciferase; second table): 1; V4: area under the curve for ten minutes, normalized using furimazine (Q-1) as a reference (nanoKAZ luciferase; second table): 1; V1: maximum intensity, normalized using furimazine (Q-1) as a reference (nanoKAZ luciferase; [7]): 1
O=c1c(Cc2ccc(O)cc2)nc2c(Cc3ccccc3)[nH]c(-c3ccc(O)cc3)cn1-2 [Q-86, 8-benzyl-2-(4-hydroxybenzyl)-6-(4-hydroxyphenyl)imidazo[1,2-a]pyrazin-3(7H)-one, reference compound]	0.09	0.08	0.07	storage stability [2]: very weak storage stability; permitted storage time at 4° C. [2]: up to two weeks only
CCc1ccc(Cc2nc3c(Cc4ccccc4)nc(-c4ccccc4)cn3c2OC(C)=O)o1 [P-21, 8-Benzyl-2-((5-ethylfuran-2-yl)methyl)-6-phenylimidazo[1,2-a]pyrazin-3-yl acetate]	–	–	–	time to complete hydrolysis into the luciferin Q-12 [5]: complete reaction in less than two hours
Cc1ccc(Cc2nc3c(Cc4ccccc4)[nH]c(-c4ccccc4)cn-3c2=O)o1 [Q-3, 8-benzyl-2-((5-methylfuran-2-yl)methyl)-6-phenylimidazo[1,2-a]pyrazin-3(7H)-one]	2.7	2.39	1.3	photons having a wavelength beyond 560 nm up to 600 nm (nanoKAZ [1]): 10%; light emission in live-cell images compared with Q-1 ([3]; images acquired for one second from live cells, FIG. 5): gain of light emission; Vmax (nanoKAZ [4]): 2.0·10^6 RLU/sec; range over which bioluminescence is linear with the enzyme concentration (nanoKAZ [6]): 5 orders of magnitude; in vivo bioluminescence image quality (IL7:nanoKAZ): Quantitative images of high quality were acquired
O=c1c(Cc2ccccc2F)nc2c(Cc3ccccc3)[nH]c(-c3ccccc3)cn1-2 [Q-56, 8-benzyl-2-(2-fluorobenzyl)-6-phenylimidazo[1,2-a]pyrazin-3(7H)-one]	1.84	1.51	0.7	–
O=c1c(Cc2ccco2)nc2c(Cc3ccccc3)[nH]c(-c3c(F)cccc3F)cn1-2 [Q-27, 8-benzyl-6-(2,6-difluorophenyl)-2-(furan-2-ylmethyl)imidazo[1,2-a]pyrazin-3(7H)-one]	1.04	1.02	0.97	–
Cc1cc(Cc2nc3c(Cc4cccc(F)c4F)[nH]c(-c4ccccc4)cn-3c2=O)oc1C [Q-124, 8-(2,3-difluorobenzyl)-2-((4,5-dimethylfuran-2-yl)methyl)-6-phenylimidazo[1,2-a]pyrazin-3(7H)-one]	–	–	–	V3: area under the curve for 2 hours, normalized using furimazine (Q-1) as a reference (nanoKAZ luciferase; second table): 2.29; V4: area under the curve for ten minutes, normalized using furimazine (Q-1) as a reference (nanoKAZ luciferase; second table): 1.03; V1: maximum intensity, normalized using furimazine (Q-1) as a reference (nanoKAZ luciferase; [7]): 2.43
O=c1c(Cc2ccccc2)nc2c(Cc3ccccc3)[nH]c(-c3ccccc3F)cn1-2 [Q-20, 2,8-dibenzyl-6-(2-fluorophenyl)imidazo[1,2-a]pyrazin-3(7H)-one]	2	1.59	0.66	–
O=c1c(Cc2ccccc2)nc2c(Cc3ccccc3)[nH]c(-c3ccc(O)cc3)cn1-2 [Q-75, 2,8-dibenzyl-6-(4-hydroxyphenyl)imidazo[1,2-a]pyrazin-3(7H)-one, reference compound]	2.03	0.45	0.11	–

Source: US12612411B1, “Imidazopyrazine derivatives, process for preparation thereof, and their uses as luciferins” (INSTITUT PASTEUR, priority 2017, dated 2026)
